Experimental data as given in patent publication US11292791B2 (priority 2017, dated 2022).
Like-named read-outs stand apart in the source and are kept apart here.

Columns and labels:
BRD4 [1] = target: T1, BRD4 (Homo sapiens (Human), UniProt O60885); test: biochemical; settings: BRD4 IC50 (μM gmean)
BRD4 [2] = target: T1, BRD4; settings: read-out: BRD4 IC50 (μM gmean)

Structure (SMILES)	IC50 (BRD4 [1])	IC50 (BRD4 [2])
COC(=O)N1c2ccc3c(nc(Cc4ccccc4)n3CCC(N)=O)c2CC[C@@H]1C [Example 289, methyl (7S)-2-benzyl-3-(2-carbamoylethyl)-7-methyl-3H,6H,7H,8H,9H-imidazo[4,5-f]quinoline-6-carboxylate]	1 to 1000 µM	
COC(=O)N1c2ccc3c(nc(C(O)c4cc5ccoc5cn4)n3C3CCCC(C(=O)O)C3)c2CC[C@@H]1C (stereo partly drawn) [Example 589]		1 to 1000 µM
COC(=O)N1c2ccc3c(nc(C(C)Cn4cc(C)cn4)n3C3CCS(=O)(=O)C3)c2CC[C@@H]1C (stereo partly drawn) [Example 834]		1 to 1000 µM
COC(=O)N1c2ccc3c(nc(CCn4ccccc4=O)n3CCNCc3ncnn3C)c2CC[C@@H]1C [Example 317]		1 to 1000 µM
COC(=O)N1c2ccc3c(nc([C@H](C)Cn4cc(Cl)cn4)n3[C@H]3CC[C@H](C(=O)O)CC3)c2CC[C@@H]1C [Example 907]		1 to 1000 µM
COC(=O)N1c2ccc3c(nc(CCn4cccn4)n3CC(=O)N3CCC(O)CC3)c2CC[C@@H]1C [Example 352]		1 to 1000 µM
COC(=O)N1c2ccc3c(nc(CCn4cccn4)n3CC(=O)NCC#N)c2CC[C@@H]1C [Example 366]		1 to 1000 µM
COC(=O)N1c2ccc3c(nc(Cc4ccccc4)n3C3CC4(CNC4)C3)c2CC[C@@H]1C [Example 94]		1 to 1000 µM
COC(=O)N1c2ccc3c(nc(C(C)(C)c4ccc(OC)c(F)c4)n3[C@H]3CC[C@H](C(=O)O)CC3)c2CC[C@@H]1C [Example 560]		1 to 1000 µM
COC(=O)N1c2ccc3c(nc(Cc4cccc(Cl)c4)n3[C@@H]3CCC[C@@H](C(=O)O)C3)c2CC[C@@H]1C [Example 616]		1 to 1000 µM
COC(=O)N1c2ccc3c(nc(CCn4ccccc4=O)n3CC(=O)N(C)CC(=O)N(C)C)c2CC[C@@H]1C [Example 380]		1 to 1000 µM
COC(=O)N1c2ccc3c(nc(CCc4ncc(C)o4)n3[C@H]3CC[C@H](C(=O)O)CC3)c2CC[C@@H]1C [Example 35]		1 to 1000 µM
COC(=O)N1c2ccc3c(nc(Nc4ccc(OC)cc4F)n3[C@H]3CC[C@H](C(=O)O)CC3)c2CC[C@@H]1C [Example 851]		1 to 1000 µM
COC(=O)N1c2ccc3c(nc(N(C)c4ccc(Cl)cc4)n3[C@H]3CC[C@H](C(=O)O)CC3)c2CC[C@@H]1C [Example 691]		1 to 1000 µM
COC(=O)N1c2ccc3c(nc(CCn4ccccc4=O)n3CC(=O)NCC(=O)N(C)C)c2CC[C@@H]1C [Example 382]		1 to 1000 µM
COC(=O)N1c2ccc3c(nc(CCn4cccn4)n3CCNCC(=O)N3CCCC3)c2CC[C@@H]1C [Example 300]		1 to 1000 µM
COC(=O)N1c2ccc3c(nc(CCn4cccn4)n3CCNCCC#N)c2CC[C@@H]1C [Example 306]		1 to 1000 µM
COC(=O)N1c2ccc3c(nc(CCn4ccccc4=O)n3CC(=O)N3CCNC(=O)C3)c2CC[C@@H]1C [Example 400]		1 to 1000 µM

Structure (SMILES)	IC50 (BRD4 [1])	IC50 (BRD4 [2])
COC(=O)N1c2ccc3c(nc(CCn4cccn4)n3C3CCC4(CC3)CNC4)c2CC[C@@H]1C [Example 109]		1 to 1000 µM
COC(=O)N1c2ccc3c(nc(CCn4cccn4)n3CCN(C)CC(=O)N(C)C)c2CC[C@@H]1C [Example 297]		1 to 1000 µM
COC(=O)N1c2ccc3c(nc(CCn4cc(Cl)cn4)n3[C@H]3CC[C@H](C(=O)O)CC3)c2CC[C@@H]1C [Example 41]		1 to 1000 µM
COC(=O)N1c2ccc3c(nc(CCn4cccn4)n3CCS(C)(=O)=O)c2CC[C@@H]1C [Example 271]		1 to 1000 µM
COC(=O)N1c2ccc3c(nc(Cn4cc(C5CC5)cn4)n3[C@H]3CC[C@H](C(=O)O)CC3)c2CC[C@@H]1C [Example 733]		1 to 1000 µM
CCC(O)(c1ccccc1)c1nc2c3c(ccc2n1[C@@H]1CCC[C@@H](C(=O)O)C1)N(C(=O)OC)[C@@H](C)CC3 (stereo partly drawn) [Example 534]		1 to 1000 µM
COC(=O)N1c2ccc3c(nc(CC(C(=O)O)c4cccc(F)c4)n3C3CCCOC3)c2CC[C@@H]1C (stereo partly drawn) [Example 728]		1 to 1000 µM
COC(=O)N1c2ccc3c(nc(C4(c5cncc(C)n5)CC4)n3[C@@H]3CCC[C@@H](C(=O)O)C3)c2CC[C@@H]1C [Example 704]		1 to 1000 µM
COC(=O)N1c2ccc3c(nc(CCn4ccccc4=O)n3CCNCc3ccn(C)n3)c2CC[C@@H]1C [Example 316]		1 to 1000 µM
COC(=O)N1c2ccc3c(nc(CCn4cccn4)n3CCN(C)C3CCOCC3)c2CC[C@@H]1C [Example 301]		1 to 1000 µM
COC(=O)N1c2ccc3c(nc(CC(C(=O)O)c4ccccc4)n3-c3cccc(OC)c3)c2CC[C@@H]1C (stereo partly drawn) [Example 786]		1 to 1000 µM
COC(=O)N1c2ccc3c(nc([C@H](C)c4ccccc4)n3C3CCNCC3)c2CC[C@@H]1C [Example 58, methyl (S)-7-methyl-2-((R)-1-phenylethyl)-3-(piperidin-4-yl)-3,7,8,9-tetrahydro-6H-imidazo[4,5-f]quinoline-6-carboxylate]		1 to 1000 µM
COC(=O)N1c2ccc3c(nc(CN4CCC5(CC5)CC4=O)n3[C@@H]3CCC[C@@H](C(=O)O)C3)c2CC[C@@H]1C [Example 688]		1 to 1000 µM
COC(=O)N1c2ccc3c(nc(CCn4cccn4)n3[C@H]3CC[C@H](C(=O)O)CC3)c2CC[C@@H]1C [Example 31]		1 to 1000 µM
COC(=O)N1c2ccc3c(nc(C[C@H](C(=O)O)c4ccccc4)n3C)c2CC[C@@H]1C [Example 134, (2S)-3-[(7S)-6-(methoxycarbonyl)-3,7-dimethyl-3H,6H,7H,8H,9H-imidazo[4,5-f]quinolin-2-yl]-2-phenylpropanoic Acid]		1 to 1000 µM
COC(=O)N1c2ccc3c(nc(Cc4ccccc4)n3C3CCCCC3)c2CC[C@@H]1C [Example 263]		1 to 1000 µM
COC(=O)N1c2ccc3c(nc(Cc4cncc(Cl)n4)n3[C@@H]3CCC[C@@H](C(=O)O)C3)c2CC[C@@H]1C [Example 645]		1 to 1000 µM
COC(=O)N1c2ccc3c(nc(C(O)CC4CCC(F)(F)CC4)n3C3CCCC(C(=O)O)C3)c2CC[C@@H]1C (stereo partly drawn) [Example 712]		1 to 1000 µM
